Molecular target: T1, protein kinase CK2 (CK2α) (Homo sapiens, UniProt P68400)
T1 construct: gene CSNK2A1
Experiment: radioactive kinase assay with recombinant CK2 and synthetic peptide, varied ATP, Michaelis-Menten re-plots
Type: biochemical

T1 sequence (P68400 1-335): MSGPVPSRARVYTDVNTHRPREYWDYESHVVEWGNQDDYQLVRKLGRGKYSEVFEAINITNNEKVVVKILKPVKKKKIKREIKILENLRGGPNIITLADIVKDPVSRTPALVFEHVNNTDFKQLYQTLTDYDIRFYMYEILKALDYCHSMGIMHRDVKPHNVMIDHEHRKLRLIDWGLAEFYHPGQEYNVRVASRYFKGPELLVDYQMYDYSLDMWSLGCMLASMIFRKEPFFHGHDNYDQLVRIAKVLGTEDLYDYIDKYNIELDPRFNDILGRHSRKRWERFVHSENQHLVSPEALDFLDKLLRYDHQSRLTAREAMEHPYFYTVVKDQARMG
T1 sequence (P67870 2-215 partner): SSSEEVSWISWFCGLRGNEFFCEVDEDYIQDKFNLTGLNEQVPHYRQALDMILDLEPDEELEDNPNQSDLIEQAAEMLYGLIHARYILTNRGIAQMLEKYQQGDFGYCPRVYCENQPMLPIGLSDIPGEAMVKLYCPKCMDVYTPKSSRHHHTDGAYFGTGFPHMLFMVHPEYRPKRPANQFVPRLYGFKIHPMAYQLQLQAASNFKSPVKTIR

SMILES: COc1ccc(/N=C/c2c(O)ccc3c2oc2cc(Cl)c(O)c(Cl)c23)cc1 [D11, 1,3-dichloro-6-[(E)-((4-methoxyphenyl)imino)methyl]dibenzo(b,d)furan-2,7-diol]
- Ki: 7.7 nM

From paper PMC5374409, “D11-Mediated Inhibition of Protein Kinase CK2 Impairs HIF-1α-Mediated Signaling in Human Glioblastoma Cells” (Pharmaceuticals, 2017)
